Laboratory results published in US8367695B2, “Condensed tetrahydroquinoline derivative and use thereof for medical purposes” (Mitsubishi Tanabe Pharma Corporation, priority 2007, dated 2013).

The compounds below were run against T1, human recombinant mineralocorticoid receptor (MR) (Homo sapiens, UniProt P08235) (assay: Radioactive ligand binding test, MR cytosol, [3H]-Ald). Settings: not given.
T1 construct: made in house; host or cells: insect cell Sf9 (baculovirus)
T1 sequence (P08235 1-984): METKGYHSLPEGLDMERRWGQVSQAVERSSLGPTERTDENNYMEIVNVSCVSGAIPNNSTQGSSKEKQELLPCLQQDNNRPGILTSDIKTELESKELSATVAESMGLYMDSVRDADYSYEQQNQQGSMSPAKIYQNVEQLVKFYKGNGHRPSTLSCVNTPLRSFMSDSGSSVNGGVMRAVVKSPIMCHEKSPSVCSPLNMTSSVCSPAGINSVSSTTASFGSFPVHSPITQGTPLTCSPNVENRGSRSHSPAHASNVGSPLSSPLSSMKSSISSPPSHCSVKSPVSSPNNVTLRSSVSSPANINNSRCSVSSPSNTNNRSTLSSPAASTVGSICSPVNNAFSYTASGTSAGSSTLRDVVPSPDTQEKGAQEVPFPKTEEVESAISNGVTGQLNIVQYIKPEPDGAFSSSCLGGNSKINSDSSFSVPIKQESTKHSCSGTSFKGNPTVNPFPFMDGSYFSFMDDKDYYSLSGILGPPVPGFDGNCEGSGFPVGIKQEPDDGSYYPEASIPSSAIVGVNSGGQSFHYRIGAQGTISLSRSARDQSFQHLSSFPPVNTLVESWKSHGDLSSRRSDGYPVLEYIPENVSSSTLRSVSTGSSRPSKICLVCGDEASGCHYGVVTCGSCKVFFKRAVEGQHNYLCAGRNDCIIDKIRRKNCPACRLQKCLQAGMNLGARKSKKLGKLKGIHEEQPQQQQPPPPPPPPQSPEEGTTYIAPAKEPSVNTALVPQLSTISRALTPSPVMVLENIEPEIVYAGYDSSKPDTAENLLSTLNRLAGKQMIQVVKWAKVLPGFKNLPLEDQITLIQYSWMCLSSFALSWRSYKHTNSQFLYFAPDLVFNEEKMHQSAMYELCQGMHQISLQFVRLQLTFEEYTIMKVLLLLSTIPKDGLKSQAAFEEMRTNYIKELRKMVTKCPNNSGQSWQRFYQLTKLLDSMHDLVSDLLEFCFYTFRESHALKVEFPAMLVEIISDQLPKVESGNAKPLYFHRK
Description: Radioactive Ligand Binding Test Using Cytosols of Human Glucocorticoids Receptor, Progesterone Receptor and Mineralocorticoid Receptor
The procedures described in Neuroimmunomodulation (1994, 1, p. 66-73) and Invest. Opthalmol. Vis. Sci. (1996, 37, p. 805-813) were modified and used. In brief, cytosol preparations of human recombinant glucocorticoids receptor (GR) and human recombinant progesterone receptor-B (PRB) were purchased from Invitrogen (Carlsbad, Calif.), and a cytosol preparation of human recombinant mineralocorticoid receptor (MR) was prepared by our company (Yokohama, JP). MR cDNA was cloned into a baculovirus expression vector and expressed in insect cell Sf9. The procedures described in J. Biol. Chem. (1991, 266, p. 18072-18081), Proc. Natl. Acad. Sci. USA (1991, 88, p. 10681-10685) and Bac-to-Bac (registered trade mark) Baculovirus Expression Systems technical manual (Invitrogen) were partly modified and used as the procedures for MR gene cloning up to preparation of recombinant receptor cytosol. [^3H]-Dexamethasone (Dex, specific activity 91.0 Ci/mmol) was purchased from GE Healthcare (Buckinghamshire, UK), and [^3H]-progesterone (Prog, specific activity 103 Ci/mmol) and [3H]-aldosterone (Ald, specific activity 87.9 Ci/mmol) were each purchased from PerkinElmer (Boston, Mass.). Polypropylene round-bottomed 96 well plate was obtained from ABgene (Epsom, UK). Dimethyl Sulfoxide (DMSO) and hydrochloric acid were obtained from Kanto Chemical (TOKYO, JP). Trizma Base (Tris), Bovine Serum Albumin (BSA) and Sodium tungstate dihydrate were obtained from Sigma Chemicals (St. Louis, Mo.). Dithiothreitol (DTT) and Dextran 70 were obtained from GE Healthcare (Buckinghamshire, UK). Glycerol was obtained from Junsei Chemical (TOKYO, JP). Norit® “SX-II” was obtained from Wako Pure Chemical Industries, Ltd. (Osaka, JP). MeltiLex™, A, Printed Filtermat A and Sample Bag were obtained from PerkinElmer (Boston, Mass.).
As a buffer for GR binding assay, 25 mM Tris-HCl (4° C., pH 7.4)/1 mM EDTA·2Na/1 mM DTT/0.1% BSA was prepared and used. As buffers for PRB and MR binding assay, 10 mM Tris-HCl (4° C., pH 7.4)/1 mM DTT/0.1% BSA/10% glycerol and 20 mM Tris-HCl (4° C., pH 7.4)/1 mM EDTA·2Na/10% glycerol/20 mM sodium tungstate were respectively prepared and used. As dextran-coated charcoal (DCC) for B/F separation, 0.75% Dextran 70/0.75% Norit® SX-II/10 mM Tris-HCl (4° C., pH 7.4) was prepared and used.
Compound storage solutions (5-20 mM) were prepared using DMSO. The storage solutions were diluted with DMSO to 0.1 mM (for GR) and 0.3 mM (for PRB and MR), and further diluted 20-fold with distilled water to give solutions. Then, the preparations were diluted to each concentration with 5% DMSO solution. 1% DMSO was present at the time of the binding assay.
In the case of MR binding assay, [^3H]-Ald (about 4 nM), MR cytosol (about 1 mg/mL concentration of total protein), a test compound and a binding buffer were mixed in a total volume of 50 μL, and the mixture was stood at 4° C. for 30 min or longer. A specific binding was defined to be the difference in the [^3H]-Ald binding between the presence and the absence of 1 μM unlabeled Ald.
After the reaction, 50 μL of DCC was added to each well and blended. Thereafter, the mixture was stood at 4° C. for 10 min. The plate was applied to high-speed cooling centrifuge under the conditions of 4° C., 2000 rpm, 5 min to perform B/F separation. A given amount of the supernatant was recovered, which was spotted on Filtermat A of 96 well format (PerkinElmer) and rapidly dried at a high temperature. Then, solid scintillator MeltiLex A (PerkinElmer) was melted on Filtermat A. The mixture was placed in a Sample Bag (PerkinElmer), and the level of radioactivity was measured by plate reader 1450 Micro Beta TRILUX (PerkinElmer).
Measurement of Inhibition Constant (Ki)
With `Cc1noc(C)c1-c1cc2c(c3c1CCC3)NC(C)(C)C(=O)C2(C)C` [Example 2, 6-(3,5-dimethylisoxazol-4-yl)-2,2,4,4-tetramethyl-2,3,4,7,8,9-hexahydro-1H-cyclopenta[h]quinolin-3-one] the Ki was greater than 1000 nM. For `CC1(C)Nc2c(cc(-c3ccnc4cc[nH]c34)c3c2CCC3)C(C)(C)C1=O` [Example 13, 2,2,4,4-tetramethyl-6-(1H-pyrrolo[3,2-b]pyridin-7-yl)-2,3,4,7,8,9-hexahydro-1H-cyclopenta[h]quinolin-3-one], the Ki was greater than 1000 nM. With `CC1(C)Nc2c(cc(-c3cccc4nccn34)c3c2CCC3)C(C)(C)C1=O` [Example 14, 6-(imidazo[1,2-a]pyridin-5-yl)-2,2,4,4-tetramethyl-2,3,4,7,8,9-hexahydro-1H-cyclopenta[h]quinolin-3-one] the Ki was greater than 1000 nM. With `CC1(C)Nc2c(cc(-c3cccc4nncn34)c3c2CCC3)C(C)(C)C1=O` [Example 17, 2,2,4,4-tetramethyl-6-([1,2,4]triazolo[4,3-a]pyridin-5-yl)-2,3,4,7,8,9-hexahydro-1H-cyclopenta[h]quinolin-3-one] the Ki was greater than 1000 nM. `CC1(C)Nc2c(cc(-c3cccc4ncccc34)c3c2CCC3)C(C)(C)C1=O` [Example 20, 2,2,4,4-tetramethyl-6-(quinolin-5-yl)-2,3,4,7,8,9-hexahydro-1H-cyclopenta[h]quinolin-3-one] gave a Ki greater than 1000 nM. `CC1(C)Nc2c(cc(-c3ccnc4ncccc34)c3c2CCC3)C(C)(C)C1=O` [Example 21, 2,2,4,4-tetramethyl-6-([1,8]naphthyridin-4-yl)-2,3,4,7,8,9-hexahydro-1H-cyclopenta[h]quinolin-3-one] showed a Ki greater than 1000 nM. In the case of `C=C1C(C)(C)Nc2c(cc(-c3c(C)ncn3C)c3c2CCC3)C1(C)C` [Example 29, 6-(3,5-dimethyl-3H-imidazol-4-yl)-2,2,4,4-tetramethyl-3-methylene-2,3,4,7,8,9-hexahydro-1H-cyclopenta[h]quinoline], the Ki is reported as greater than 1000 nM. With `C=CCC1(C)C(=O)C(C)(C)Nc2c1cc(-c1ccc(O)cc1C)c1c2CCC1` (centres unmarked) [Example 50, 4-allyl-6-(4-hydroxy-2-methylphenyl)-2,2,4-trimethyl-2,3,4,7,8,9-hexahydro-1H-cyclopenta[h]quinolin-3-one] the Ki was greater than 1000 nM. Compound `C=CCC1(C)C(=O)C(C)(C)Nc2c1cc(-c1c(C)noc1C)c1c2CCC1` (centres unmarked) [Example 51, 4-allyl-6-(3,5-dimethylisoxazol-4-yl)-2,2,4-trimethyl-2,3,4,7,8,9-hexahydro-1H-cyclopenta[h]quinolin-3-one] has a Ki greater than 1000 nM. Compound `C=CCC1(C)C(=O)C(C)(C)Nc2c1cc(-c1cccc3nccn13)c1c2CCC1` (centres unmarked) [Example 57, 4-allyl-6-(imidazo[1,2-a]pyridin-5-yl)-2,2,4-trimethyl-2,3,4,7,8,9-hexahydro-1H-cyclopenta[h]quinolin-3-one] has a Ki greater than 1000 nM. `CC#CCC1(C)C(=O)C(C)(C)Nc2c1cc(-c1cccc3nccn13)c1c2CCC1` (centres unmarked) [Example 63, 4-(2-butynyl)-6-(imidazo[1,2-a]pyridin-5-yl)-2,2,4-trimethyl-2,3,4,7,8,9-hexahydro-1H-cyclopenta[h]quinolin-3-one] gave a Ki greater than 1000 nM. Compound `Cc1noc(C)c1-c1cc2c(c3c1OCO3)NC(C)(C)C(=O)C2(C)C` [Example 69, 4-(3,5-dimethylisoxazol-4-yl)-6,6,8,8-tetramethyl-6,7,8,9-tetrahydro-[1,3]dioxolo[4,5-h]quinolin-7-one] has a Ki greater than 1000 nM. `CC1(C)Nc2c(cc(-c3cccc4nccn34)c3c2OCO3)C(C)(C)C1=O` [Example 71, 4-(imidazo[1,2-a]pyridin-5-yl)-6,6,8,8-tetramethyl-6,7,8,9-tetrahydro-[1,3]dioxolo[4,5-h]quinolin-7-one] gave a Ki greater than 1000 nM. `CC1(C)Nc2c(cc(-c3cccc4ncccc34)c3c2OCO3)C(C)(C)C1=O` [Example 72, 6,6,8,8-tetramethyl-4-(quinolin-5-yl)-6,7,8,9-tetrahydro-[1,3]dioxolo[4,5-h]quinolin-7-one] gave a Ki greater than 1000 nM. Work on `C=CCC1(C)C(=O)C(C)(C)Nc2c1cc(-c1cccc3cc[nH]c13)c1c2OCO1` (centres unmarked) [Example 78, 6-allyl-4-(1H-indol-7-yl)-6,8,8-trimethyl-6,7,8,9-tetrahydro-[1,3]dioxolo[4,5-h]quinolin-7-one] yielded a Ki greater than 1000 nM. In the case of `CC1(C)Nc2c(cc(-c3cccc4nccn34)c3c2OC(F)(F)O3)C(C)(C)C1=O` [Example 82, 2,2-difluoro-4-(imidazo[1,2-a]pyridin-5-yl)-6,6,8,8-tetramethyl-6,7,8,9-tetrahydro-[1,3]dioxolo[4,5-h]quinolin-7-one], the Ki is reported as greater than 1000 nM.

Same assay, conditions: [3H]-Ald about 4 nM, MR cytosol (Sf9), 4° C.; Cheng-Prusoff, Kd about 2.0 nM; read-out: MR (Ki: nM)
Work on `CCC1(C)C(=O)C(C)(C)Nc2c1cc(-c1cccc3nccn13)c1c2CCC1` (centres unmarked) [Example 58, 4-ethyl-6-(imidazo[1,2-s]pyridin-5-yl)-2,2,4-trimethyl-2,3,4,7,8,9-hexahydro-1H-cyclopenta[h]quinolin-3-one] yielded a Ki greater than 1000 nM.
